Measured values taken from PMC10244169, “Psychedelics promote plasticity by directly binding to BDNF receptor TrkB” (Nature Neuroscience, 2023).

How the values were obtained:
TrkB = experiment: Western blot of TrkB protein expression in N2a cells; format: cell-based; settings: WT and Y433F^+/−
Procedure: In a separate set of experiments to examine the effect of 5-HT2A activation, M100907 (100 nM) was administered as a 10 min pretreatment and remained in the medium for the rest of the experiment. Next, cells were lysed and centrifuged. […] The co-immunoprecipitation was carried out as previously described[11],[23],[24] with minor modifications. Briefly, Magnetic Dynabeads Protein G (Invitrogen, 10004D) were coated with anti-TrkB antibody (R&D Systems, AF1494) at 200 ng of antibody per 1 µl of beads in rotation (2 h, 4 °C). Finally, lysates were mixed with the coated beads (100 µg of total protein per 15 µl of beads) and incubated in rotation (overnight, 4 °C).
Proteins were separated according to their molecular weight by SDS–PAGE and transferred to a polyvinylidene fluoride membrane. Membranes were incubated with the following primary antibodies (all 1:1,000 in 3% BSA in TBS-T, overnight, 4 °C): anti-TrkB (R&D Systems, AF1494), anti-β-actin (Sigma-Aldrich, A1978), anti-phospho-mTOR (Cell Signaling Technology, 5536S), anti-phospho-p44/42 MAPK (Erk1/2) (Cell Signaling Technology, 9106S), anti-mTOR (Cell Signaling Technology, 2972S) and anti-p44/42 MAPK (Erk1/2) (Cell Signaling Technology, 9102S). […] Protein bands were visualized using enhanced chemiluminescent substrate (Thermo Scientific, 32132, ECL Plus) and imaged with a charge-coupled device camera (G:BOX, Syngene).

mice = experiment: Contextual fear conditioning, extinction and fear reinstatement (incl. baseline locomotor activity); format: in vivo, mouse; settings: for Mean, figure 7k (contextual fear conditioning) / Mean, figure 7i (contextual fear conditioning) / Mean, figure 7j (contextual fear conditioning): LSD group; for Mean Diff., ext fig 7e: e7e; for Mean Diff., ext fig 7f: e7f; for Mean Diff., ext fig 7o: e7o, Bonferroni's multiple comparisons test
Procedure: Male WT mice (C57BL/6JRccHsd, Envigo) were used for contextual fear conditioning experiments with and without extinction training as previously described[11],[34] with modifications. Briefly, animals were conditioned in context A (metallic bar flooring, transparent Plexiglass walls, 23 × 23 × 35 cm arena) with a series of five scrambled foot shocks (0.6 mA, 2 s) along a 480 s session. […] During the following 3 days, mice were exposed to extinction training in context A for 480 s every 24 h or placed for the same duration and number of sessions in context B (black planar floor, black nontransparent walls, 23 × 23 × 35 cm arena), which we categorized as extinction and no extinction trainings, respectively. Afterwards, animals were placed back into their home cage and left undisturbed for 3 weeks. Finally, all mice were reconditioned with a new set of five scrambled foot shocks (0.6 mA, 2 s) along a 480 s session in context A, and their fear reinstatement response was measured 24 h later for the same duration also in context A. All sessions were conducted under constant illumination (100 lux). For the contextual fear conditioning and fear reinstatement experiment with male WT and Y433F^+/−, we used the same protocol as for animals undergoing extinction training in context A above. Baseline freezing was established during the first conditioning session. Movement was measured by infrared beams placed on the sides of the conditioning chamber, and freezing was automatically determined by the fear conditioning apparatus and software (TSE Systems) and expressed as the percentage of time spent freezing.

human TrkB = target: T1, human TrkB (Homo sapiens, UniProt Q16620); experiment: ^3H-LSD saturation binding to TrkB immunoprecipitated from HEK293T lysates
T1 construct: GFP; expressed in transfected cells; host or cells: HEK293T
T1 sequence (Q16620 32-822): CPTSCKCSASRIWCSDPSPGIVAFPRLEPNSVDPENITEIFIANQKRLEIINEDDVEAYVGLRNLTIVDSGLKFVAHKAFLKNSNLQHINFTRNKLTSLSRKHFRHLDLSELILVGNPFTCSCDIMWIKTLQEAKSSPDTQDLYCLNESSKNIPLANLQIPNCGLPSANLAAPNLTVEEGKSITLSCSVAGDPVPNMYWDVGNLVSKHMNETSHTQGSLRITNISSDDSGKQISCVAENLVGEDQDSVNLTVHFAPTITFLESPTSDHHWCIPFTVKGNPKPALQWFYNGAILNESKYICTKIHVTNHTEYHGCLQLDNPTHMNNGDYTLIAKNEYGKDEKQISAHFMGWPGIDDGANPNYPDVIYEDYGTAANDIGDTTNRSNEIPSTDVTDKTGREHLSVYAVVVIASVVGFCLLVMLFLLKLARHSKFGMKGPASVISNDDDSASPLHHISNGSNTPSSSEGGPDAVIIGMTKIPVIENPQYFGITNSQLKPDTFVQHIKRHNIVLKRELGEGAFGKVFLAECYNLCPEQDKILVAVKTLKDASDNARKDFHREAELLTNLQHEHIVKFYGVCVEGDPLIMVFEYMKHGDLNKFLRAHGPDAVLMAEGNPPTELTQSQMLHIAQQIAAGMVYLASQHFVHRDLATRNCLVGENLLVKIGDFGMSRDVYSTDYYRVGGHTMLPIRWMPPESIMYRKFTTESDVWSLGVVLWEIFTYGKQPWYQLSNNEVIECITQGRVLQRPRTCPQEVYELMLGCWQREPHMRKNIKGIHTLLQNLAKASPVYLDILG
Procedure: (§1) Binding assays were performed as previously described with minor modifications. […] Samples from mouse embryo (E18) brains were also lysed, vortexed, sonicated and centrifuged for binding assays. Plates were then washed with PBS. […] For the competition binding assays with biotinylated R,R-HNK, the amino-biotinylation of R,R-HNK was performed using a commercial kit (Thermo Scientific, EZ-Link NHS-PEG4 Biotinylation Kit, 21455) and the reaction monitored by MS. A mixture of biotinylated R,R-HNK (10 µM) and unlabeled compounds (1 pM to 10 µM) in PBS was added to the 96-well plates containing the immunoprecipitated TrkB and incubated for 1 h at room temperature. […] Luminescence was determined via streptavidin conjugated with horseradish peroxidase (HRP; Thermo Fisher Scientific, 21126; 1:5,000, 1 h at room temperature) in reaction with the Pierce ECL substrate (Thermo Fisher Scientific, 32106). Luminescence from blank wells that contained all reagents but the sample lysates was used to determine nonspecific binding. To obtain the binding curves, results from binding assays were fitted to the equation of specific binding with Hill slope from GraphPad Prism 9.2. To calculate koff values, results were fitted to the equation of dissociation of one phase exponential decay from GraphPad Prism 9.2.

rat TrkB (WT) = target: T2, rat TrkB (WT) (Rattus norvegicus, UniProt Q63604); experiment: as above
T2 construct: expressed in transfected cells; host or cells: HEK293T
T2 sequence (Q63604 32-821): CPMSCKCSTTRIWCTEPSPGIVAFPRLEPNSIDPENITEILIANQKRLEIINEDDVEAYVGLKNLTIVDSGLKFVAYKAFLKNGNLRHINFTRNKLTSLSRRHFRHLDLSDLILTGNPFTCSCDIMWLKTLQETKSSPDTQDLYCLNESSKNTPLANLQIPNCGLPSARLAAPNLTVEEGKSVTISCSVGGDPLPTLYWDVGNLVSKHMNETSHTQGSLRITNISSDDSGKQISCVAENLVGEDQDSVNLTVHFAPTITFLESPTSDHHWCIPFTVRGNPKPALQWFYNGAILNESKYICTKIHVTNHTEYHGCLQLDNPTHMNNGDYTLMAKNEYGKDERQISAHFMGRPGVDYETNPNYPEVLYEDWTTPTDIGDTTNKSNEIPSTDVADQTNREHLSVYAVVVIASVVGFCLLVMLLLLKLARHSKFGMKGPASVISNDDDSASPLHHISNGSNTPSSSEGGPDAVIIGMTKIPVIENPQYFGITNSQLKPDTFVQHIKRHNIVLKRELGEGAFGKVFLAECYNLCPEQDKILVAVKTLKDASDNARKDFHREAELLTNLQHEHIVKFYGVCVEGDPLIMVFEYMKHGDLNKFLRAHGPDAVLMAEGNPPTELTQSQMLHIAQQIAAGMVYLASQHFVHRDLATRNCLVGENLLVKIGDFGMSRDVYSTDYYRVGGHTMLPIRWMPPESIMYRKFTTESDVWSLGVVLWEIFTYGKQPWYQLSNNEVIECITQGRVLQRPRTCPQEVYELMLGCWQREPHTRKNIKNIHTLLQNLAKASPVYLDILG
Procedure: as §1

[1] = WT:Saline vs. WT:LSD, uncorrected Fisher's LSD
[2] = Y433F+/-:Saline vs. Y433F+/-:LSD, uncorrected Fisher's LSD
[3] = WT mice, saline minus LSD, uncorrected Fisher's LSD
[4] = Y433F+/- mice, saline minus LSD, uncorrected Fisher's LSD
[5] = means over WT and Y433F+/- mice

CCN(CC)C(=O)C1C=C2c3cccc4[nH]cc(c34)CC2N(C)C1 (stereo not shown) [LSD, lysergic acid diethylamide]
total TrkB expression (TrkB): No differences in total TrkB expression
Mean Diff., Fig. 7i (mice; [1]): 14.87
Mean Diff., Fig. 7i (mice; [2]): -1.67
Mean Diff., Fig. 7j (mice; [1]): 16.98
Mean Diff., Fig. 7j (mice; [2]): -1.138
Mean Diff., Fig. 7k (mice; Ext.:Saline vs. Ext.:LSD, uncorrected Fisher's LSD): 21.67
Mean Diff., Fig. 7k (mice; No ext.:Saline vs. No ext.:LSD, uncorrected Fisher's LSD): 7.778
Mean, figure 7k (contextual fear conditioning) (mice; Ext. (extinction training)): 20.42
Mean Diff., figure 7k, Ext.:Saline vs. Ext.:LSD (mice; Ext., saline minus LSD, uncorrected Fisher's LSD): 21.67
fear extinction without extinction training (mice; LSD alone, no extinction training): does not bring about fear extinction
Mean, figure 7k (contextual fear conditioning) (mice; No ext.): 44.56
Mean Diff., figure 7k, No ext.:Saline vs. No ext.:LSD (mice; No ext., saline minus LSD, uncorrected Fisher's LSD): 7.778
contextual extinction of conditioned fear response (mice; WT mice, 72 h after single administration, persists at least 4 weeks, with extinction training): facilitates contextual extinction of conditioned fear response
Mean, figure 7i (contextual fear conditioning) (mice; WT mice): 20.6
Mean, figure 7j (contextual fear conditioning) (mice; WT mice): 39.47
Mean Diff., figure 7i, WT:Saline vs. WT:LSD (mice; [3]): 14.87
Mean Diff., figure 7j, WT:Saline vs. WT:LSD (mice; [3]): 16.98
Mean, figure 7i (contextual fear conditioning) (mice; Y433F+/- mice): 34.18
Mean, figure 7j (contextual fear conditioning) (mice; Y433F+/- mice): 54.05
Mean Diff., figure 7i, Y433F+/-:Saline vs. Y433F+/-:LSD (mice; [4]): -1.67
Mean Diff., figure 7j, Y433F+/-:Saline vs. Y433F+/-:LSD (mice; [4]): -1.138
contextual extinction of conditioned fear response (mice; Y433F^+/− mice): these short- and long-term effects are lost
Mean Diff., ext fig 7e (mice; [1]): -2.065
Mean Diff., ext fig 7e (mice; [2]): -2.882
Mean Diff., ext fig 7f (mice; [1]): -1.252
Mean Diff., ext fig 7f (mice; [2]): -6.692
Mean Diff., ext fig 7o (mice; Ext.:Saline vs. Ext.:LSD): 6.343
Mean Diff., ext fig 7o (mice; No ext.:Saline vs. No ext.:LSD): -0.7639
Predicted (LS) mean of LSD, figure 7i (mice; mean over WT and Y433F+/- mice): 27.39
Predicted (LS) mean of LSD, figure 7j (mice; mean over WT and Y433F+/- mice): 46.76
Difference between predicted means (Saline - LSD), figure 7i (mice; [5]): 6.598
Difference between predicted means (Saline - LSD), figure 7j (mice; [5]): 7.923
Kd (human TrkB): 0.93 ± 0.414 nM
Bmax (human TrkB; ^3H-LSD saturation, human TrkB): 4.028 ± 0.326 pmol mg^−1 protein
Bmax (specific binding with Hill slope, best-fit) (human TrkB; ext fig 1a, TRKB.wt, n=2): 111.1
h (Hill slope, best-fit) (human TrkB; ext fig 1a, TRKB.wt, n=2): 0.4722
Kd (rat TrkB (WT)): 0.656 ± 0.093 nM
h (best-fit, 1a) (rat TrkB (WT); WT, Hill slope): 1.255
Bmax (best-fit, 1a) (rat TrkB (WT); WT, specific binding with Hill slope): 100.9
Bmax (rat TrkB (WT); ^3H-LSD saturation, rat TrkB): 3.053 ± 0.099 pmol mg^−1 protein
